Source: the NIST ThermoML archive (doi:10.1021/je7001122)
Values joined by “and” are separate entries in the source; they are usually repeats but may differ in a detail not shown here. Equal values may be shown once.

Conditions: Liquid

CCCCCCCCCCCCCCCCCCCCCCCC [tetracosane]
vapor or sublimation pressure
Conditions | Diaphragm manometer | Transpiration method
333.46 K | – | 4.3e-06 kPa
353.43 K | – | 4.35e-05 kPa
353.97 K | – | 4.5e-05 kPa
373.17 K | 0.000296 kPa | 0.000307 kPa
373.61 K | 0.000322 kPa | 0.000316 kPa
379.15 K | 0.000531 kPa | 0.000524 kPa
393.2 K | 0.001727 kPa | 0.001725 kPa and 0.001721 kPa
397.55 K | 0.002432 kPa | 0.002406 kPa
414.68 K | 0.008547 kPa | 0.00843 kPa
417.75 K | 0.01055 kPa | 0.0105 kPa
433.1 K | 0.02857 kPa | –
452.6 K | 0.08931 kPa | –

CCCCCCCCCC [decane]
Transpiration method
Conditions | vapor or sublimation pressure [kPa]
323.94 K | 0.9556
353.57 K | 4.252
373.15 K | 10.05
402.36 K | 29.48
402.48 K | 29.36

CCCCCCCCCCCCCCCCCCCCCCCCCCCC [octacosane]
Transpiration method
Conditions | vapor or sublimation pressure
354.01 K | 2.14e-06 kPa
373.92 K | 1.77e-05 kPa and 1.8e-05 kPa
393.65 K | 0.000122 kPa and 0.000126 kPa
413.5 K | 0.000633 kPa and 0.000651 kPa and 0.00063 kPa
433.32 K | 0.00293 kPa
453.28 K | 0.01264 kPa
473.64 K | 0.04404 kPa
494.8 K | 0.1554 kPa
516.89 K | 0.4272 kPa
